This test has as its target T1, (Homo sapiens, UniProt Q96P20).
T1 construct: IL-1β ELISA of supernatant
Kind of test: IL-1β secretion assay in THP-1 cells (PMA differentiated, LPS and nigericin stimulated; ELISA). The format is cell-based. The procedure:
Biochemical Assay of the Compounds
Procedure for Culturing THP-1 Cells
Compounds as provided herein were tested in the following assay. Cell culture medium employed contained RPMI 1640 medium (89%), FBS (10%), Pen/Strep (1%), and 2-mercaptoethanol (0.05 mM). Freezing medium was made up of 90% FBS and 10% DMSO. THP-1 cells were removed from the liquid nitrogen and placed into a 37 °C water bath to thaw, until signs of ice dissipated. The cells were then added to 9 mL of warm cell culture medium and centrifuged for 5 minutes at 1000 rpm. The supernatant was discarded, and the cells were resuspended in new cell culture medium. THP-1 cells were then split and cultured in the cell culture medium, being passaged every 2-3 days with the cell density will be maintained between 5×10^5 and 1.5×10^6 viable cells/mL.
To freeze, cells were resuspended with fresh freezing medium, adjusting the cell density to 5×10^6 cells/mL. The cell suspension was partitioned into 1 mL aliquots per vial, and the vials were transferred to a −80 °C freezer. After one day at −80 °C, the cell vials were transferred to liquid nitrogen freezer for storage.
Procedure for IL-Iβ Secretion Assay in 384-Well Plates
PMA was dissolved in DMSO to make a stock solution at 5 mg/ml and stored in 10 μl aliquots at −20 °C for single use. PMA is added to normal growth medium. LPS was diluted with 1 mL of water solution to provide a 1 mg/mL stock solution and stored in 15 μL aliquots at −20 °C for single use. Nigericin is diluted in ice cold 100% ethanol to 5 mg/ml (6.7 mM) and stored in 75 μL aliquots at −20 °C for single use. Serum-free media contains RPMI 1640 medium (99%), Pen/Strep (1%), and 2-mercaptoethanol (0.05 mM). The two control conditions used to qualify and normalize test compound dose-response curves were as follows: High Control=25 ng/mL LPS, 5 μM Nigericin, 0.5% DMSO, Low Control=25 ng/ml, LPS, 0.5% DMSO.
Day 1: Differentiation with PMA
THP-1 cells were diluted to provide a suspension at a concentration of 1.0×10^6 cells/mL with the total volume of suspension required to enable the desired number of assay plates. The growth media was supplemented with PMA (5 ng/mL final concentration) and the cells were incubated at 37 °C under a humidified atmosphere of 5% CO2 for 40 h.
Day 3: Plating with Sequential LPS and Nigericin Stimulation
All media was carefully aspirated from each culture flask. The cells were washed carefully with 1× DPBS. The cells were then briefly digested with trypsin LE for 5 minutes at 23 °C and immediately resuspended in cell growth media. After resuspension, the cells were centrifuged at 1000 rpm for 3 minutes and the supernatant was discarded. The cells were resuspended in DPBS and once again centrifuged at 1000 rpm for 5 minutes. The supernatant was discarded and the cell pellet was resuspended in serum-free media supplemented with LPS (25 ng/mL final concentration) to enable the distribution of 30K THP-1 cells within 45 μL of media into each well of 384-well PDL-coated plates. The 384-well plates were then incubated at 37 °C under a humidified atmosphere of 5% CO2 for 2 h. Following this period, test compounds were dispensed by Tecan across the desired concentration range with all wells normalized to a final 0.5% DMSO concentration. The plates were then then incubated at 37 °C under a humidified atmosphere of 5% CO2 for 1 h. Following this period, 5 μL of the […] nigericin stock solution was added to each of the appropriate wells and plates were centrifuged at 1000 rpm for 30 seconds. The plates were the immediately reintroduced to the incubator at 37 °C under a humidified atmosphere of 5% CO2 for 2 h. After this time, 35 μL/well of supernatant was collected and transferred into v-bottom plate and centrifuged at 1000 rpm for 1 minute. These supernatant aliquots were analyzed using an IL-Iβ detection kit as described below. If needed, the test samples could be snap frozen and stored at −80 °C until analyzed. […]
Background: In an ELISA, binding on a coated surface is turned into a signal by an enzyme label.

[1] abbreviates: inhibition of IL-1β secretion, 25 ng/mL LPS, 5 μM Nigericin, 0.5% DMSO, read-out: Activity (IC50).
The mark [2] stands for this setting: inhibition of IL-1β secretion, 25 ng/mL LPS, 5 μM Nigericin, 0.5% DMSO, read-out: Activity (IC50 class).

The structures appear in SMILES notation. Where two headings read alike, the source gives them in different places.

T1 sequence (Q96P20 whole entry): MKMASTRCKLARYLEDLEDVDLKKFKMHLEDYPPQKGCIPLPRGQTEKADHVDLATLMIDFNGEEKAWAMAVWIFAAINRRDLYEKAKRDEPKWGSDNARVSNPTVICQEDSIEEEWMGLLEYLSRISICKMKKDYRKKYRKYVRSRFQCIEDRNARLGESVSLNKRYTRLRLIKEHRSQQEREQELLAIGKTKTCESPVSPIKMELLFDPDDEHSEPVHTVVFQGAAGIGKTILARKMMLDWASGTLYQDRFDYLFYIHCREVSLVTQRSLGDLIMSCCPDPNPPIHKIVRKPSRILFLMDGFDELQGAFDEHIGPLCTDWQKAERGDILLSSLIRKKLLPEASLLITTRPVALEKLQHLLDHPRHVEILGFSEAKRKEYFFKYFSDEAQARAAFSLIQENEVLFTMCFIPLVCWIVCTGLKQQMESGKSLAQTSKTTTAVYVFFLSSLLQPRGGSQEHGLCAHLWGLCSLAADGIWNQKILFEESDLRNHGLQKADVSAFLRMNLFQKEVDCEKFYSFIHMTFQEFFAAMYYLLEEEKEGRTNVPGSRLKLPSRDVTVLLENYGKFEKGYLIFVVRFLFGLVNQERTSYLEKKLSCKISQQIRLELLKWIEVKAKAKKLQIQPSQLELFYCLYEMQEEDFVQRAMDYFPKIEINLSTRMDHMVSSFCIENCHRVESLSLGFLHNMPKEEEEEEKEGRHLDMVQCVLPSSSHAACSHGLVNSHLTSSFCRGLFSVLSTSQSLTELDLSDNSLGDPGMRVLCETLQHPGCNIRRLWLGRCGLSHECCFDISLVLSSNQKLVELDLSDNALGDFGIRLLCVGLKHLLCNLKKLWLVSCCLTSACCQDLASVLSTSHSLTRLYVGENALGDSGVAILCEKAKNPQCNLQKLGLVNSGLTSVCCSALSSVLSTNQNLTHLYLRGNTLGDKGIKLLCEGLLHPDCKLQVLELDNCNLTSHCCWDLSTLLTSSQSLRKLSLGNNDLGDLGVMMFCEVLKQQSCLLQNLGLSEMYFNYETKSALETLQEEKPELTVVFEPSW

Turning to `O=C(CN1C(=O)c2ccc(Br)cc2[C@@H]2CCC[C@@H]21)Nc1ncc(F)cn1` (relative stereo) [compound 1, 2-(cis-8-bromo-5-oxo-2,3,3a,9b-tetrahydro-1H-cyclopenta[c]isoquinolin-4-yl)-N-(5-fluoropyrimidin-2-yl) acetamide], the IC50 (read-out: Activity (IC50), inhibition of IL-1β secretion, 25 ng/mL LPS, 5 μM Nigericin, 0.5% DMSO) amounted to 700 nM and the IC50 (read-out: Activity (IC50 class), inhibition of IL-1β secretion, 25 ng/mL LPS, 5 μM Nigericin, 0.5% DMSO) is < 1000 nM.

`O=C(CN1C(=O)c2ccc(Br)cc2[C@@H]2CC[C@@H]21)Nc1ncc(F)cn1` (relative stereo) [compound 4, 2-(cis-7-bromo-4-oxo-1,2,2a,8b-tetrahydrocyclobuta[c]isoquinolin-3-yl)-N-(5-fluoropyrimidin-2-yl) acetamide]: the IC50 is 240 nM under setting [1] and < 1000 nM under setting [2].

Regarding `O=C(CN1C(=O)c2ccc(Br)cc2[C@@H]2C[C@@H]21)Nc1ncc(F)cn1` (relative stereo) [compound 5, 2-(cis-6-bromo-3-oxo-1a,7b-dihydro-1H-cyclopropa[c]isoquinolin-2-yl)-N-(5-fluoropyrimidin-2-yl) acetamide], the IC50 was 800 nM under setting [1] and < 1000 nM under setting [2].

Take `O=C(CN1C(=O)c2ccc(Br)cc2[C@]2(C(F)(F)F)C[C@H]12)Nc1ncc(F)cn1` (single isomer, unassigned) [compound 2, 2-[trans-6-bromo-3-oxo-7b-(trifluoromethyl)-1,1a-dihydrocyclopropa[c]isoquinolin-2-yl]-N-(5-fluoropyrimidin-2-yl) acetamide]: the IC50 under setting [1] worked out at 270 nM and the IC50 under setting [2] is < 1000 nM.

For `O=C(CN1C(=O)c2ccc(Br)cc2[C@]2(C(F)(F)F)C[C@H]12)Nc1ncc(F)cn1` (single isomer, unassigned) [compound 3, 2-[trans-6-bromo-3-oxo-7b-(trifluoromethyl)-1,1a-dihydrocyclopropa[c]isoquinolin-2-yl]-N-(5-fluoropyrimidin-2-yl) acetamide], the IC50 runs as follows: under setting [1], 9500 nM; under setting [2], 1000 to 10000 nM.
